Tested on: K24384-001-R-PDC complex spheroids, viability
Experiment: Anticancer human tumor K24384-001-R-PDC patient-derived pancreatic adenocarcinoma cell line growth inhibition [GQUAD]
Settings: for IC50: curve of first compound; for viability, T/C: stronger effect = lower value
Outline: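 Viability of tumor cells grown as complex spheroids with endothelial and stromal cells, exposed to drug combinations. Top concentration at or near clinical Cmax (else 10 microM), diluted in half-log increments.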

[1] = second compound 0.0316 µM, first compound 0.0316 µM
[2] = second compound 0.0316 µM, first compound 0.1 µM
[3] = second compound 0.0316 µM, first compound 0.316 µM
[4] = second compound 0.0316 µM, first compound 1 µM
[5] = second compound 0.0316 µM, first compound 3.16 µM
[6] = second compound 0.0316 µM, first compound 10 µM
[7] = second compound 0.1 µM, first compound 0.0316 µM
[8] = second compound 0.1 µM, first compound 0.1 µM
[9] = second compound 0.1 µM, first compound 0.316 µM
[10] = second compound 0.1 µM, first compound 1 µM
[11] = second compound 0.1 µM, first compound 3.16 µM
[12] = second compound 0.1 µM, first compound 10 µM
[13] = second compound 0.316 µM, first compound 0.0316 µM
[14] = second compound 0.316 µM, first compound 0.1 µM
[15] = second compound 0.316 µM, first compound 0.316 µM
[16] = second compound 0.316 µM, first compound 1 µM
[17] = second compound 0.316 µM, first compound 3.16 µM
[18] = second compound 0.316 µM, first compound 10 µM
[19] = second compound 1 µM, first compound 0.0316 µM
[20] = second compound 1 µM, first compound 0.1 µM
[21] = second compound 1 µM, first compound 0.316 µM
[22] = second compound 1 µM, first compound 1 µM
[23] = second compound 1 µM, first compound 3.16 µM
[24] = second compound 1 µM, first compound 10 µM
[25] = second compound 3.16 µM, first compound 0.0316 µM
[26] = second compound 3.16 µM, first compound 0.1 µM
[27] = second compound 3.16 µM, first compound 0.316 µM
[28] = second compound 3.16 µM, first compound 1 µM
[29] = second compound 3.16 µM, first compound 3.16 µM
[30] = second compound 3.16 µM, first compound 10 µM
[31] = second compound 10 µM, first compound 0.0316 µM
[32] = second compound 10 µM, first compound 0.1 µM
[33] = second compound 10 µM, first compound 0.316 µM
[34] = second compound 10 µM, first compound 1 µM
[35] = second compound 10 µM, first compound 3.16 µM
[36] = second compound 10 µM, first compound 10 µM
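Further: spheroids exposed to compounds for seven days.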

## CC1COCCN1c1cc(C2(S(C)(=N)=O)CC2)nc(-c2ccnc3[nH]ccc23)n1 (stereo not drawn) + CN(C)c1ccc(Nc2c3ccc(NC(=O)CCN4CCCC4)cc3nc3cc(NC(=O)CCN4CCCC4)ccc23)cc1
Second compound 0.0316 µM
  IC50: 1530 nM
Second compound 0.1 µM
  IC50: 1600 nM
Second compound 0.316 µM
  IC50: 1710 nM
Second compound 1 µM
  IC50: 1700 nM
Second compound 3.16 µM
  IC50: 1680 nM
Second compound 10 µM
  IC50: 1700 nM
[1]
  viability, T/C: 95.2%
[2]
  viability, T/C: 90.1%
[3]
  viability, T/C: 113%
[4]
  viability, T/C: 64.1%
[5]
  viability, T/C: 28.2%
[6]
  viability, T/C: 24.2%
[7]
  viability, T/C: 90.3%
[8]
  viability, T/C: 115%
[9]
  viability, T/C: 84.4%
[10]
  viability, T/C: 60.9%
[11]
  viability, T/C: 36.4%
[12]
  viability, T/C: 23.2%
[13]
  viability, T/C: 83.3%
[14]
  viability, T/C: 92.9%
[15]
  viability, T/C: 86.1%
[16]
  viability, T/C: 56.9%
[17]
  viability, T/C: 42.2%
[18]
  viability, T/C: 26.1%
[19]
  viability, T/C: 86.5%
[20]
  viability, T/C: 104%
[21]
  viability, T/C: 86.2%
[22]
  viability, T/C: 62.2%
[23]
  viability, T/C: 35.9%
[24]
  viability, T/C: 32.1%
[25]
  viability, T/C: 90.2%
[26]
  viability, T/C: 98.6%
[27]
  viability, T/C: 99.3%
[28]
  viability, T/C: 60.8%
[29]
  viability, T/C: 39.6%
[30]
  viability, T/C: 23.4%
[31]
  viability, T/C: 91.6%
[32]
  viability, T/C: 102%
[33]
  viability, T/C: 86.9%
[34]
  viability, T/C: 62.9%
[35]
  viability, T/C: 35.4%
[36]
  viability, T/C: 28.2%

## COc1cccc2c1C(=O)c1c(O)c3c(c(O)c1C2=O)CC(O)(C(=O)CO)CC3OC1CC(N)C(O)C(C)O1 (stereo not drawn) + CN(C)c1ccc(Nc2c3ccc(NC(=O)CCN4CCCC4)cc3nc3cc(NC(=O)CCN4CCCC4)ccc23)cc1
Second compound 0.0316 µM
  IC50: 215 nM
Second compound 0.1 µM
  IC50: 183 nM
Second compound 0.316 µM
  IC50: 120 nM
Second compound 1 µM
  IC50: 148 nM
Second compound 3.16 µM
  IC50: 169 nM
Second compound 10 µM
  IC50: 244 nM
[1]
  viability, T/C: 94.6%
[2]
  viability, T/C: 57.3%
[3]
  viability, T/C: 54.4%
[4]
  viability, T/C: 18.4%
[5]
  viability, T/C: 4.88%
[6]
  viability, T/C: 3.9%
[7]
  viability, T/C: 92.5%
[8]
  viability, T/C: 63.3%
[9]
  viability, T/C: 38.2%
[10]
  viability, T/C: 19.1%
[11]
  viability, T/C: 5.65%
[12]
  viability, T/C: 3.5%
[13]
  viability, T/C: 79.4%
[14]
  viability, T/C: 51.2%
[15]
  viability, T/C: 35.3%
[16]
  viability, T/C: 20.8%
[17]
  viability, T/C: 6.33%
[18]
  viability, T/C: 4.16%
[19]
  viability, T/C: 90.7%
[20]
  viability, T/C: 53.8%
[21]
  viability, T/C: 39.3%
[22]
  viability, T/C: 20.4%
[23]
  viability, T/C: 5.66%
[24]
  viability, T/C: 4.15%
[25]
  viability, T/C: 83.2%
[26]
  viability, T/C: 56.4%
[27]
  viability, T/C: 39.2%
[28]
  viability, T/C: 29.3%
[29]
  viability, T/C: 5.72%
[30]
  viability, T/C: 5.1%
[31]
  viability, T/C: 80.9%
[32]
  viability, T/C: 101%
[33]
  viability, T/C: 38%
[34]
  viability, T/C: 35%
[35]
  viability, T/C: 9.76%
[36]
  viability, T/C: 2.73%

## CCCS(=O)(=O)Nc1ccc(F)c(C(=O)c2c[nH]c3ncc(-c4ccc(Cl)cc4)cc23)c1F + Cc1[nH]c2ccc(F)cc2c1-c1nc2c3cccnc3c3ncccc3c2[nH]1
Second compound 0.0316 µM
  IC50: 9150 nM
Second compound 0.1 µM
  IC50: 8660 nM
Second compound 0.316 µM
  IC50: 8260 nM
Second compound 1 µM
  IC50: 7750 nM
Second compound 3.16 µM
  IC50: 5030 nM
Second compound 10 µM
  IC50: 5990 nM
[1]
  viability, T/C: 86.4%
[2]
  viability, T/C: 137%
[3]
  viability, T/C: 107%
[4]
  viability, T/C: 117%
[5]
  viability, T/C: 130%
[6]
  viability, T/C: 44.5%
[7]
  viability, T/C: 87.7%
[8]
  viability, T/C: 105%
[9]
  viability, T/C: 117%
[10]
  viability, T/C: 128%
[11]
  viability, T/C: 122%
[12]
  viability, T/C: 41%
[13]
  viability, T/C: 92.1%
[14]
  viability, T/C: 102%
[15]
  viability, T/C: 140%
[16]
  viability, T/C: 137%
[17]
  viability, T/C: 125%
[18]
  viability, T/C: 36.3%
[19]
  viability, T/C: 112%
[20]
  viability, T/C: 109%
[21]
  viability, T/C: 108%
[22]
  viability, T/C: 126%
[23]
  viability, T/C: 128%
[24]
  viability, T/C: 31%
[25]
  viability, T/C: 77%
[26]
  viability, T/C: 111%
[27]
  viability, T/C: 76.7%
[28]
  viability, T/C: 92.2%
[29]
  viability, T/C: 75.9%
[30]
  viability, T/C: 11.3%
[31]
  viability, T/C: 84.6%
[32]
  viability, T/C: 80.8%
[33]
  viability, T/C: 85.2%
[34]
  viability, T/C: 117%
[35]
  viability, T/C: 109%
[36]
  viability, T/C: 13.8%

## CC1COCCN1c1cc(-c2ccnn2C)c2ccnc(-c3ccn[nH]3)c2n1 (stereo not drawn) + Cc1[nH]c2ccc(F)cc2c1-c1nc2c3cccnc3c3ncccc3c2[nH]1
Second compound 0.0316 µM
  IC50: 215 nM
Second compound 0.1 µM
  IC50: 242 nM
Second compound 0.316 µM
  IC50: 219 nM
Second compound 1 µM
  IC50: 178 nM
Second compound 3.16 µM
  IC50: 57.6 nM
Second compound 10 µM
  IC50: 51.1 nM
[1]
  viability, T/C: 84.6%
[2]
  viability, T/C: 63.7%
[3]
  viability, T/C: 45.1%
[4]
  viability, T/C: 28.7%
[5]
  viability, T/C: 44.8%
[6]
  viability, T/C: 31.8%
[7]
  viability, T/C: 68.7%
[8]
  viability, T/C: 68.9%
[9]
  viability, T/C: 44.3%
[10]
  viability, T/C: 31.1%
[11]
  viability, T/C: 45%
[12]
  viability, T/C: 36.5%
[13]
  viability, T/C: 71.4%
[14]
  viability, T/C: 76.5%
[15]
  viability, T/C: 38.7%
[16]
  viability, T/C: 33.5%
[17]
  viability, T/C: 39.8%
[18]
  viability, T/C: 38.2%
[19]
  viability, T/C: 62.1%
[20]
  viability, T/C: 64.6%
[21]
  viability, T/C: 29.5%
[22]
  viability, T/C: 41.5%
[23]
  viability, T/C: 39.6%
[24]
  viability, T/C: 36.3%
[25]
  viability, T/C: 55.5%
[26]
  viability, T/C: 48.1%
[27]
  viability, T/C: 31.4%
[28]
  viability, T/C: 41%
[29]
  viability, T/C: 29.3%
[30]
  viability, T/C: 35.7%
[31]
  viability, T/C: 57.4%
[32]
  viability, T/C: 39.9%
[33]
  viability, T/C: 30.3%
[34]
  viability, T/C: 31.5%
[35]
  viability, T/C: 24.1%
[36]
  viability, T/C: 28.9%

From PubChem BioAssay AID2060483 (Molecular Pharmacology Branch, DTP, NCI, 2025)
